Measured values published in publication PMC10298530, “Synthesis and Anticancer Activity of A-Ring-Modified Derivatives of Dihydrobetulin” (International Journal of Molecular Sciences, 2023).
Where “and” joins values, the source holds several entries; their conditions need not be identical. Identical values can stand only once. Like-named read-outs stand apart in the source and are kept apart here.

Assays:
HCT116 = assay: MTT cell viability assay, HCT116; type: cell-based, human; settings: for IC50: Homo sapiens, HCT-116
Text: (§1) Blokhin National Medical Research Center of Oncology (the Ministry of Health of the Russian Federation, Moscow).

A549 = assay: MTT cell viability assay, A549; type: cell-based, human; settings: for IC50: Homo sapiens
Text: as §1

HBL-100 = assay: MTT cell viability assay, HBL-100; type: cell-based, human; settings: for IC50: Homo sapiens
Experimental: (§2) The cells were cultured in a humidified CO2 incubator (model 460-CE; Thermo Fisher Scientific, Waltham, MA, USA) at +37 °C and 5% CO2.
(§3) The percentage of the viable cells was calculated according to the following equation: cell viability (%) = 100 × (mean absorbance in the treatment group/mean absorbance in the control group). The results were expressed pictorially using Prism 6.0 (GraphPad Software, Boston, MA, USA).

HBL-100/Dox = assay: MTT cell viability assay, HBL-100/Dox; type: cell-based, human
Experimental: as §2, §3

P-gp = molecular target: T1, P-gp (Homo sapiens, UniProt P08183); assay: Rhodamine 123 efflux test (P-gp functional activity) in HBL-100/Dox cells; type: cell-based; settings: Rh123 efflux, 60 min
T1 construct: endogenous in cells
T1 sequence (P08183 whole entry): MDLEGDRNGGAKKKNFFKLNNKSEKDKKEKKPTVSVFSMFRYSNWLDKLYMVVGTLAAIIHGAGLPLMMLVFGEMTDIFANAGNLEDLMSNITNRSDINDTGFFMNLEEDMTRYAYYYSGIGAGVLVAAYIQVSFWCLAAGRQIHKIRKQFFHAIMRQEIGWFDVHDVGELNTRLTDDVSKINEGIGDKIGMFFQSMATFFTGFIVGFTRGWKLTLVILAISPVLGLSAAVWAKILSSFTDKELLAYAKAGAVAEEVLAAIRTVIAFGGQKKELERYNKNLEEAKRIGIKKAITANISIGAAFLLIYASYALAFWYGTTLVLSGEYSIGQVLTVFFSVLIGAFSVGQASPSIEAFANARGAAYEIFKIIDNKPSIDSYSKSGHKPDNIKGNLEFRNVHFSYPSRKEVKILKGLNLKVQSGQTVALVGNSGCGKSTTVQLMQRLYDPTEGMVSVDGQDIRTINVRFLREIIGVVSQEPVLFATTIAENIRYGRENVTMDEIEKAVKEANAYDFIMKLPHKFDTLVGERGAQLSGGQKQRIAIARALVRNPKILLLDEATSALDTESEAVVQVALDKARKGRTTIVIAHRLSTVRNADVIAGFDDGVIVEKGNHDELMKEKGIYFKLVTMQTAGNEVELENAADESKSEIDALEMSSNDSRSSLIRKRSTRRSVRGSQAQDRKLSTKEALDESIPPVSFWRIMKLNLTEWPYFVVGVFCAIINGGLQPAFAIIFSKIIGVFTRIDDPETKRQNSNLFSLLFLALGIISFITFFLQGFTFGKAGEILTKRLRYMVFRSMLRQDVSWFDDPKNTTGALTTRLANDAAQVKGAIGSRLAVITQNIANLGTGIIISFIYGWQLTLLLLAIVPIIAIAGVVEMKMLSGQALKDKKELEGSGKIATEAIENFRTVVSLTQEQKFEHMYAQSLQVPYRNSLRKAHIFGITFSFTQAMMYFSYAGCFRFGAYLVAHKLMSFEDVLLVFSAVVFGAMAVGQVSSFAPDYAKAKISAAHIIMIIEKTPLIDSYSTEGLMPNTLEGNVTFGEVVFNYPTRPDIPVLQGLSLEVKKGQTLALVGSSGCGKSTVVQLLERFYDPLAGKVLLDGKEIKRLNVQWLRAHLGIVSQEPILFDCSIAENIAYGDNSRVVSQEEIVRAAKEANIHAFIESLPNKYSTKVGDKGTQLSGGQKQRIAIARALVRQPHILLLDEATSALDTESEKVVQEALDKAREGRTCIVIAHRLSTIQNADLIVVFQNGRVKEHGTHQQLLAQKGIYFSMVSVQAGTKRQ
Experimental: The functional activity of P-gp was evaluated using the previously described method. […] After incubation, the cells were washed twice and divided into several fractions (2.5 × 10^5 cells per point). One fraction was incubated in a pure medium, and the other one was incubated with MK (2.0 μM) added. […] Cell fluorescence was evaluated on CytoFlex S flow cytometer (Beckman Coulter, Brea, CA, USA). The results were analyzed using FlowJo software (ver. X 10.0.7r2, FlowJo Software, San Jose, CA, USA) and were represented as geometric mean fluorescence intensity (gMFI) and MAF coefficient, which were calculated using the following formula: MAF = (Mean (inh.) − Mean (free))/Mean (inh.), where MAF is the MDR activity functional, mean (free) is the mean value of cell fluorescence without inhibitor, and mean (inh.) is the mean value for cell fluorescence with inhibitor.

HBL-100 cells [1] = assay: Annexin V-FITC/PI assay, HBL-100; type: cell-based, human; settings: 16 h
Experimental: Briefly, after exposing the cells to the tested and control compounds for 16 h, the cells were detached with accutase (HiMedia Laboratories, Maharashtra, India) and washed with cold PBS. Then, the cells were re-suspended in 100 μL of 1 × Binding Buffer at concentration 1 × 10^6 cells/mL and incubated with 5 μL Annexin V-FITC and 5 μL propidium iodide (PI) for 15 min at room temperature in darkness. After incubation, 400 μL of 1 × Binding Buffer was added to each tube. The samples were analyzed by flow cytometry (CytoFlex S, Beckman Coulter, Brea, CA, USA) within 1 h of staining, and the findings were analyzed using a trial version of the Kaluza software (Beckman Coulter, Brea, CA, USA).

HBL-100 cells [2] = assay: Hoechst 33342 / TMRE fluorescent microscopy, HBL-100; type: cell-based, human
Experimental: (§4) The DNA marker, termed Hoechst 33342 Ready Flow Reagent, was used as a stock solution (Invitrogen, ThermoFisher Scientific, USA). The mitochondrial marker, LumiTracker Mito TMRE (tetramethylrhodamine, ethyl ester; Lumiprobe, Moscow, Russia), was dissolved in DMSO as 1.0 mM stock solution. The marker of reactive oxygen species, H2DCFDA (Lumiprobe, Moscow, Russia), was dissolved in DMSO as 100.0 μM stock solution. After incubation, the cells were incubated with FBS-free culture medium containing the dye mixture of Hoechst 33342 (final concentration 1.0 μM) and LumiTracker Mito TMRE (final concentration 1.0 μM), or H2DCFDA dye taken alone (final concentration 1.0 μM), for 30 min at 37 °C in darkness. Fluorescence, at 420 nm (Hoechst 33342), at 510 nm (TMRE), and at 575 nm (H2DCFDA), of the test cultures (including controls) was analyzed immediately using a fluorescence microscope CKX 53 (Olympus, Tokyo, Japan). The TMRE fluorescence intensity was quantified using Fiji (ImageJ).

HBL-100/Dox cells = assay: ROS by H2DCFDA fluorescent staining, HBL-100/Dox; type: cell-based, human; settings: MK 1.8 μM, 4 h
Experimental: as §4

## COC(=O)[C@]12CC[C@@H](C(C)C)[C@@H]1[C@H]1CC[C@@H]3[C@@](C)(CCC#N)[C@H](C(=O)C(Br)Br)CC[C@@]3(C)[C@]1(C)CC2 [compound 31, 2-Cyano-24,24-dibromo-4-oxo-3,4-seco-3,23-dinorlupan-28-oic acid methyl ester]
HCT116; HCT116, MTT, 72 h of treatment, read-out: IC50 Values (Mean ± SD)
  IC50: 3.9 ± 0.1 µM
HCT116; Table S1, HCT116, read-out: IC50 (mean ± SD)
  IC50: 3.86 ± 0.08 µM
HCT116; ratio of IC50 values healthy (HEK293) / HCT116
  Selectivity index (SI): 2.95
A549; A549, MTT, 72 h of treatment, read-out: IC50 Values (Mean ± SD)
  IC50: 7 ± 0.2 µM
A549; Table S1, A549, read-out: IC50 (mean ± SD)
  IC50: 7.01 ± 0.21 µM
A549; ratio of IC50 values healthy (HEK293) / A549
  Selectivity index (SI): 1.64
HBL-100; HBL-100, MK at IC50 dose, after 72 h exposure
  death of the cells: 50%
HBL-100; HBL-100, MTT, 72 h of treatment, read-out: IC50 Values (Mean ± SD)
  IC50: 1 ± 0.1 µM
HBL-100; Table S1, HBL-100, read-out: IC50 (mean ± SD)
  IC50: 0.99 ± 0.001 µM
HBL-100; ratio of IC50 values healthy (HEK293) / HBL-100
  Selectivity index (SI): 11.50
HBL-100/Dox; HBL-100/Dox, MK at IC50 dose, after 72 h exposure
  death of the cells: 50%
HBL-100/Dox; Homo sapiens, HBL-100, 72 h, read-out: IC50 Values (Mean ± SD)
  IC50: 1.8 ± 0.1 µM
HBL-100/Dox; ratio of IC50 values healthy (HEK293) / HBL-100/Dox
  Selectivity index (SI): 6.39
P-gp
  P-gp inhibitory activity: extremely low P-gp inhibitory activity
P-gp; MK 2 μM, verapamil 30 μM, listed as MK
  MAF (MDR activity functional): 0.22±0.1 and 0.22
HBL-100 cells [1]; dose 2xIC50
  Dead cells: 5.59±0.46%
  Late apoptotic cells: 10.37 ± 1.01%
  Viable cells: 76.73 ± 1.18%
HBL-100 cells [1]; dose 2xIC50, listed as MK
  Early apoptotic cells: 7.29 ± 0.28% and 7.29±0.29%
HBL-100 cells [1]; dose IC50
  Dead cells: 2.69±0.13%
  Late apoptotic cells: 3.59 ± 0.82%
HBL-100 cells [1]; dose IC50, listed as MK
  Early apoptotic cells: 4.43±0.49%
  Viable cells: 89.57 ± 0.93% and 89.58±0.94%
HBL-100 cells [2]; 16 h, vs untreated control
  mitochondrial membrane potential (MMP), TMRE fluorescence intensity: significant (p < 0.05) reduction in MMP
HBL-100 cells [2]; Hoechst 33342, 16 h, IC50 values (MK 1.0 µM)
  number of cells with nuclear morphology changes: 21.2%
HBL-100/Dox cells
  ROS generation, H2DCFDA staining: significantly heightened the ROS generation
